Like-named read-outs stand apart in the source and are kept apart here.
Target: Human α2δ-1 subunit of Cav2.2 calcium channel (Homo sapiens (Human), UniProt P54289)
Experiment: Human α2δ-1 subunit of Cav2.2 calcium channel assay ([3H]-Gabapentin binding)
[1] = [3H]-Gabapentin binding, read-out: α2δ − 1 (Ki)

Human α2δ-1 subunit of Cav2.2 calcium channel, sequence (P54289 25-1103): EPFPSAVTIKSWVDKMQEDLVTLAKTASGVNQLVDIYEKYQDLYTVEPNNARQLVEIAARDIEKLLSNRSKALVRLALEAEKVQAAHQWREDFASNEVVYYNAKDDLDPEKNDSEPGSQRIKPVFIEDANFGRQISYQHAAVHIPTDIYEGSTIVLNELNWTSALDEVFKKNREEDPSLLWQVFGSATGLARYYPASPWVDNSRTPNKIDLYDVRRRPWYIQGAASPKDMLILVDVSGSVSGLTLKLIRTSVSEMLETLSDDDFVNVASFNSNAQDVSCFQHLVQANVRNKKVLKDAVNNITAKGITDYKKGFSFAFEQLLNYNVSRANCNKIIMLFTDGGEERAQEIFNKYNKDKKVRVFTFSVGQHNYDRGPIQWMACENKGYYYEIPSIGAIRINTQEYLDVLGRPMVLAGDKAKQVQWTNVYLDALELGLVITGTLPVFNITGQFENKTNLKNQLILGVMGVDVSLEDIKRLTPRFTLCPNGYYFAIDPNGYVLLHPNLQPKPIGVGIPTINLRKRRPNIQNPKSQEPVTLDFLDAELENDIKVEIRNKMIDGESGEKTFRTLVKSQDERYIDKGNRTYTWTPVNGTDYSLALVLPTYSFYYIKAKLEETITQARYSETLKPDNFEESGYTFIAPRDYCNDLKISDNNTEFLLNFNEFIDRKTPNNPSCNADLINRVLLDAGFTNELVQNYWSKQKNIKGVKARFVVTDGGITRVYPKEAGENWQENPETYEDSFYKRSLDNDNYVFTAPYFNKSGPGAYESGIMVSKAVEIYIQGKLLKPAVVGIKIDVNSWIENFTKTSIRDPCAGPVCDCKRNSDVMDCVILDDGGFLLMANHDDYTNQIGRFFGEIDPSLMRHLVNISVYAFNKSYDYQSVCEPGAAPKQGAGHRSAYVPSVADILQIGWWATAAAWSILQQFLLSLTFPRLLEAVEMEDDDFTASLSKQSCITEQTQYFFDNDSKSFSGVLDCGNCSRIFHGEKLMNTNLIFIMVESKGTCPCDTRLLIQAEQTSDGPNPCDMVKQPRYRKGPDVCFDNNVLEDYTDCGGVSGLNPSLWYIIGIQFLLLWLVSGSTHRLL

CN(CCN(C(=O)c1cccs1)c1ccn(-c2ccccc2)n1)Cc1cccnc1 [Example 65]
Ki [1]: 0.5 to 5 µM

CNCCN(C(=O)c1cccs1)c1ccn(-c2ccccc2)n1 [Example 57, N-[2-(Methylamino)ethyl]-N-(1-phenyl-1H-pyrazol-3-yl)thiophene-2-carboxamide]
Ki: 0.5 to 5 µM

CN(C)C1CCC(N(C(=O)c2cccs2)c2ccn(-c3ccccc3)n2)CC1 (stereo not drawn) [Example 127, N-[4-(Dimethylamino)cyclohexyl]-N-(1-phenyl-1H-pyrazol-3-yl)thiophene-2-carboxamide]
Ki [1]: > 5 µM

Cc1nnc(-c2cccc(-n3ccc(N(C(=O)c4cccc(O)c4)[C@H]4CC[C@@H](N(C)Cc5ccccc5)CC4)n3)c2)o1 [Example 154, N-{(1s,4s)-4-[Benzyl(methyl)amino]cyclohexyl}-3-hydroxy-N-{1-[3-(5-methyl-1,3,4-oxadiazol-2-yl)phenyl]-1H-pyrazol-3-yl}benzamide]
Ki [1]: > 5 µM

O=C(c1cccs1)N(CCCNCc1ccccc1)c1ccn(-c2ccccc2)n1 [Example 56, N-[3-(Benzylamino)propyl]-N-(1-phenyl-1H-pyrazol-3-yl)thiophene-2-carboxamide]
Ki: 0.5 to 5 µM

Cc1nnc(-c2cccc(-n3ccc(N(CCN(C)Cc4ccccc4)C(=O)c4cccs4)n3)c2)o1 [Example 69, N-{2-[Benzyl(methyl)amino]ethyl}-N-{1-[3-(5-methyl-1,3,4-oxadiazol-2-yl)phenyl]-1H-pyrazol-3-yl}thiophene-2-carboxamide]
Ki: 0.1 to 0.5 µM

CN(CCCN(C(=O)c1cccs1)c1ccn(-c2ccccc2)n1)Cc1ccccc1 [Example 62, N-{3-[Benzyl(methyl)amino]propyl}-N-(1-phenyl-1H-pyrazol-3-yl)thiophene-2-carboxamide]
Ki: 0.5 to 5 µM

Cc1nnc(-c2cccc(-n3ccc(N(C(=O)c4cccc(O)c4)[C@H]4CC[C@H](N(C)Cc5ccccc5)CC4)n3)c2)o1 [Example 153, N-{(1r,4r)-4-[Benzyl(methyl)amino]cyclohexyl}-3-hydroxy-N-{1-[3-(5-methyl-1,3,4-oxadiazol-2-yl)phenyl]-1H-pyrazol-3-yl}benzamide]
Ki [1]: > 5 µM

O=C(c1cccs1)N(c1ccn(-c2ccccc2)n1)C1CCCNC1 (stereo not drawn) [Example 53, N-(1-Phenyl-1H-pyrazol-3-yl)-N-(piperidin-3-yl)thiophene-2-carboxamide]
Ki: 0.5 to 5 µM

CN(CCN(C(=O)c1cccs1)c1ccn(-c2ccccc2)n1)Cc1ccncc1 [Example 64, N-{2-[Methyl(pyridin-4-ylmethyl)amino]ethyl}-N-(1-phenyl-1H-pyrazol-3-yl)thiophene-2-carboxamide]
Ki [1]: > 5 µM

CCN(C)CCN(C(=O)c1cccs1)c1ccn(-c2ccccc2)n1 [Example 63]
Ki: 0.5 to 5 µM

O=C(c1cccs1)N(CCNCc1ccccc1)c1ccn(-c2ccccc2)n1 [Example 55, N-[2-(Benzylamino)ethyl]-N-(1-phenyl-1H-pyrazol-3-yl)thiophene-2-carboxamide]
Ki: 0.5 to 5 µM

Cc1nnc(-c2cccc(-n3ccc(N(C(=O)c4cccc(O)c4)[C@H]4CC[C@H](N(C)C)CC4)n3)c2)o1 [Example 150, N-[(1r,4r)-4-(Dimethylamino)cyclohexyl]-3-hydroxy-N-{1-[3-(5-methyl-1,3,4-oxadiazol-2-yl)phenyl]-1H-pyrazol-3-yl}benzamide]
Ki [1]: > 5 µM

CN1CCCC(N(C(=O)c2cccs2)c2ccn(-c3ccccc3)n2)CC1 (stereo not drawn) [Example 39, N-(1-Methylazepan-4-yl)-N-(1-phenyl-1H-pyrazol-3-yl)thiophene-2-carboxamide]
Ki: 0.1 to 0.5 µM

CCNCCN(C(=O)c1cccs1)c1ccn(-c2ccccc2)n1 [Example 68, N-[2-(Ethylamino)ethyl]-N-(1-phenyl-1H-pyrazol-3-yl)thiophene-2-carboxamide]
Ki: 0.5 to 5 µM

CN(Cc1ccccc1)C1CCC(N(C(=O)c2cccs2)c2ccn(-c3ccccc3)n2)CC1 (stereo not drawn) [Example 128, N-{4-[Benzyl(methyl)amino]cyclohexyl}-N-(1-phenyl-1H-pyrazol-3-yl)thiophene-2-carboxamide]
Ki [1]: > 5 µM

CN1CCCC(N(C(=O)c2cccs2)c2ccn(-c3ccccc3)n2)C1 (stereo not drawn) [Example 67, N-(1-Methylpiperidin-3-yl)-N-(1-phenyl-1H-pyrazol-3-yl)thiophene-2-carboxamide]
Ki (read-out: α2δ − 1 (Ki)): > 5 µM

Cc1nnc(-c2cccc(-n3ccc(N(C(=O)c4cccs4)[C@H]4CC[C@H](N(C)Cc5ccccc5)CC4)n3)c2)o1 [Example 151, N-{(1r,4r)-4-[Benzyl(methyl)amino]cyclohexyl}-N-{1-[3-(5-methyl-1,3,4-oxadiazol-2-yl)phenyl]-1H-pyrazol-3-yl}thiophene-2-carboxamide]
Ki [1]: > 5 µM

Cc1nnc(-c2cccc(-n3ccc(N(C(=O)c4cccs4)[C@H]4CC[C@@H](N(C)Cc5ccccc5)CC4)n3)c2)o1 [Example 152, N-{(1s,4s)-4-[Benzyl(methyl)amino]cyclohexyl}-N-{1-[3-(5-methyl-1,3,4-oxadiazol-2-yl)phenyl]-1H-pyrazol-3-yl}thiophene-2-carboxamide]
Ki [1]: > 5 µM

Cc1nnc(-c2cccc(-n3ccc(N(C(=O)c4cccs4)[C@H]4CC[C@H](N(C)C)CC4)n3)c2)o1 [Example 149, N-[(1r,4r)-4-(Dimethylamino)cyclohexyl]-N-{1-[3-(5-methyl-1,3,4-oxadiazol-2-yl)phenyl]-1H-pyrazol-3-yl}thiophene-2-carboxamide]
Ki [1]: > 5 µM

CN(CCN(C(=O)c1cccs1)c1ccn(-c2ccccc2)n1)Cc1ccccc1 [Example 61, N-{2-[Benzyl(methyl)amino]ethyl}-N-(1-phenyl-1H-pyrazol-3-yl)thiophene-2-carboxamide]
Ki: 0.5 to 5 µM

Source: US10577360B2, “Arylamide derivatives having multimodal activity against pain” (ESTEVE PHARMACEUTICALS, S.A., priority 2016, dated 2020)
